Values of other authors in patent US5482960A, “Nonpeptide endothelin antagonists” (Warner-Lambert Company, priority 1994, dated 1996).
Where a SMILES comes first, the peptide text is derived from it. [ ]: non-standard residue; d: D form.

Legend:
[1] = test system: ETA; settings: oral; cited from earlier work
[2] = test system: ET receptor; settings: allergic sheep; cited from earlier work
[3] = test system: ETA; settings: mouse model of endotoxic shock; cited from earlier work
[4] = test system: ETA; settings: following subarachnoid hemorrhage; cited from earlier work
[5] = test system: endothelin; settings: rats; cited from earlier work
[6] = test system: liver; settings: cited from earlier work
[7] = test system: small intestinal mucosa; settings: local intra-arterial, rats; cited from earlier work

Cc1noc(NS(=O)(=O)c2cccc3c(N(C)C)cccc23)c1C [5-(Dimethylamino)-N-(3,4-dimethyl-5-isoxazolyl)-1-naphthalenesulfonamide]
antihypertensive effect [1]: demonstrated an oral antihypertensive effect

CC(C)C[C@@H]1NC(=O)[C@@H](C(C)C)NC(=O)[C@@H]2CCCN2C(=O)[C@@H](CC(=O)O)NC(=O)[C@@H](Cc2c[nH]c3ccccc23)NC1=O [BQ-123] (cyclo(L[dW][dD]P[dV]))
block of ET-1 induced bronchoconstriction and tracheal smooth muscle contraction [2]: block ET-1 induced bronchoconstriction and tracheal smooth muscle contraction | survival rate [3]: significantly increased the survival rate | early cerebral vasospasm [4]: prevent early cerebral vasospasm following subarachnoid hemorrhage

COc1cccc(Oc2c(NS(=O)(=O)c3ccc(C(C)(C)C)cc3)ncnc2OCCO)c1 [RO 46-2005]
efficacy in models of acute renal ischemia and subarachnoid hemorrhage [5]: effective in models of acute renal ischemia and subarachnoid hemorrhage in rats

endothelin
vasoconstriction of the hepatic vasculature and hepatic glucose output [6]: sustained vasoconstriction of the hepatic vasculature and a significant increase in hepatic glucose output | small intestinal mucosal damage [7]: induce small intestinal mucosal damage in rats in a dose-dependent manner
